pEC50: −log10 of the molar value. Read-outs that look alike come from different tables or passages of the source.
Experiments:
BRAF = target: T1, BRAF (Homo sapiens, UniProt P15056); assay: In vitro kinase assay (Z'-LYTE), BRAF; format: biochemical; conditions: read-out: % of inhibition of the kinase compared to the control
T1 construct: purchased Invitrogen
Method: (§1) 1) In Vitro Kinase Assays (Table 10 to Table 21)
(§2) The inhibitory activity of the compounds on several kinases including BRAF, EGFR (ErbB1), EGFR (ErbB1) T790M L858R, FGFR2, KDR (VEGFR2), PDGFRA (PDGFR alpha), SRC and other was evaluated by Invitrogen using the Z′-LYTE® technology. Briefly, the Z′-LYTE® biochemical assay employs a fluorescence-based, coupled-enzyme format and is based on the differential sensitivity of phosphorylated and non-phosphorylated peptides to proteolytic cleavage. The peptide substrate is labeled with two fluorophores—one at each end—that make up a FRET pair. A ratiometric method, which calculates the ratio (the Emission Ratio) of donor emission to acceptor emission after excitation of the donor fluorophore at 400 nm, is used to quantitate reaction progress.
(§3) The compounds are screened in 1% DMSO (final) in the well. For 10 point titrations, 3-fold serial dilutions are conducted from the starting concentration. All Peptide/Kinase Mixtures are diluted to a 2× working concentration in the appropriate Kinase Buffer. All ATP Solutions are diluted to a 4× working concentration in Kinase Buffer (50 mM HEPES pH 7.5, 0.01% BRIJ-35, 10 mM MgCl2, 1 mM EGTA). ATP Km apparent is previously determined using a Z′-LYTE® assay.
(§4) Each compound was incubated at a concentration of 100 nM (excepted to test the activity against ABL and ABL T315I for which the compounds were incubated at a concentration of 10 μM) and the tables 10 to 21 summarize the results obtained showing the inhibitory power of a compound.

EGFR (ErbB1) = target: T2, EGFR (ErbB1) (Homo sapiens, UniProt P00533); assay: In vitro kinase assay (Z'-LYTE), EGFR (ErbB1); format: biochemical; conditions: read-out: % of inhibition of the kinase compared to the control
T2 construct: purchased Invitrogen
Method: as §1, §2, §3, §4

EGFR (ErbB1) T790M L858R = target: T3, EGFR (ErbB1) T790M L858R (Homo sapiens, UniProt P00533, L858R/T790M); assay: In vitro kinase assay (Z'-LYTE), EGFR (ErbB1) T790M L858R; format: biochemical; conditions: read-out: % of inhibition of the kinase compared to the control
T3 construct: purchased Invitrogen
Method: as §1, §2, §3, §4

FGFR2 = target: T4, FGFR2 (Homo sapiens, UniProt P21802); assay: In vitro kinase assay (Z'-LYTE), FGFR2; format: biochemical; conditions: read-out: % of inhibition of the kinase compared to the control
T4 construct: purchased Invitrogen
T4 sequence (P21802 22-821): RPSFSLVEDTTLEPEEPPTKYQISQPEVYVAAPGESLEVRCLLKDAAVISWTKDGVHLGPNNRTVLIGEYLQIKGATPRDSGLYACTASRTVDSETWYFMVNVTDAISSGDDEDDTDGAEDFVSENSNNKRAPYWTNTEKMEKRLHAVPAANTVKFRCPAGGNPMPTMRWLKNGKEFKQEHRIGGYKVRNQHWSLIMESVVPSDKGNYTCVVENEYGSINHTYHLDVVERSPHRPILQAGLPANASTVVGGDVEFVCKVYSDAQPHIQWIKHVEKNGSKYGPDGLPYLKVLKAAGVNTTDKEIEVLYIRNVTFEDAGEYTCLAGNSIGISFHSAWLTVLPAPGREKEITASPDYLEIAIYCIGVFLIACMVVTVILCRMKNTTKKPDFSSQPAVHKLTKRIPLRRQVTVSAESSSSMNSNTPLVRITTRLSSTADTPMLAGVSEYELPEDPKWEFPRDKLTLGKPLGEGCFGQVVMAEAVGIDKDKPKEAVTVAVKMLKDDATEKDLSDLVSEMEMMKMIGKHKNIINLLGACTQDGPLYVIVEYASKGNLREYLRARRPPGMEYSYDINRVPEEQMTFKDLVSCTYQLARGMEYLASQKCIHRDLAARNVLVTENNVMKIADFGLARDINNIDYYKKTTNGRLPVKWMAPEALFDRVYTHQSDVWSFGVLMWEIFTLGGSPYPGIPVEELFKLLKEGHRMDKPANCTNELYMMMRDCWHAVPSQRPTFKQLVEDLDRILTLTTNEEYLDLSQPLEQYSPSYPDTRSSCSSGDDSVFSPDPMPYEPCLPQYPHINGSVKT
Method: as §1, §2, §3, §4

KDR (VEGFR2) = target: T5, KDR (VEGFR2) (Homo sapiens, UniProt P35968); assay: In vitro kinase assay (Z'-LYTE), KDR (VEGFR2); format: biochemical; conditions: read-out: % of inhibition of the kinase compared to the control
T5 construct: purchased Invitrogen
T5 sequence (P35968 20-1356): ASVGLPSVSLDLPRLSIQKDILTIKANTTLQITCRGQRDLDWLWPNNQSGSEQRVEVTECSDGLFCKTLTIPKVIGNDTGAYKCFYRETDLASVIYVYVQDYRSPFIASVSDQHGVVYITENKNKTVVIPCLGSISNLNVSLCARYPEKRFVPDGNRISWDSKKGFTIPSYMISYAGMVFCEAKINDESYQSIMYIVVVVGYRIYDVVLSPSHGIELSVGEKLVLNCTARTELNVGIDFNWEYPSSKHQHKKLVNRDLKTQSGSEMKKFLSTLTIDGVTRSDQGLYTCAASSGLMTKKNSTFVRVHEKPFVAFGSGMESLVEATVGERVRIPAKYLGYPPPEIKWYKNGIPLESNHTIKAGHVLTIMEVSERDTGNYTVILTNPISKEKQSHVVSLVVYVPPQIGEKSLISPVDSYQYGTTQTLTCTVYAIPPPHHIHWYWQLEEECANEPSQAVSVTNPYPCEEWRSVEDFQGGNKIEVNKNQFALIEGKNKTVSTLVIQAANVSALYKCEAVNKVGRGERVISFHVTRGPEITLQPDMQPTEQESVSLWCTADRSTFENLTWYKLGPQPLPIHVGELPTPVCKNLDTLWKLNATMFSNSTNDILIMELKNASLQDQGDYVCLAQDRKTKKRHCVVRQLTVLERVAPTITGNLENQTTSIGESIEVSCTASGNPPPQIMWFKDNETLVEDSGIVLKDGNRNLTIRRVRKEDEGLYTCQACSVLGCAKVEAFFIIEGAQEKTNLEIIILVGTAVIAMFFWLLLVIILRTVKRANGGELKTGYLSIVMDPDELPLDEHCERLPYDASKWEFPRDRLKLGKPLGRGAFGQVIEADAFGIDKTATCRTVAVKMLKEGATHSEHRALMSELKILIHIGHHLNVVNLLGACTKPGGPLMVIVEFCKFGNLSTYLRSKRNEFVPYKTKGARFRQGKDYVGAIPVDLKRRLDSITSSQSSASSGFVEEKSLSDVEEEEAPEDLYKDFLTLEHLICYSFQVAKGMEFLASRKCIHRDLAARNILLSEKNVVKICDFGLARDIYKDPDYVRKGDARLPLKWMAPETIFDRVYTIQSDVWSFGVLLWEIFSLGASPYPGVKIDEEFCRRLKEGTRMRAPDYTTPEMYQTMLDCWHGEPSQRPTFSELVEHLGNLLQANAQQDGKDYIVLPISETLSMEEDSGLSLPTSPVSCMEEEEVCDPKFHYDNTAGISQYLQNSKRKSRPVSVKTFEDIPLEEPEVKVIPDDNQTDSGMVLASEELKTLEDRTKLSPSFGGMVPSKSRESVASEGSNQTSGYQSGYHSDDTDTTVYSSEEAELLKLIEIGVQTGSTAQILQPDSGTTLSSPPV
Method: as §1, §2, §3, §4

PDGFRA (PDGFR alpha) = target: T6, PDGFRA (PDGFR alpha) (Homo sapiens, UniProt P16234); assay: In vitro kinase assay (Z'-LYTE), PDGFRA; format: biochemical; conditions: read-out: % of inhibition of the kinase compared to the control
T6 construct: purchased Invitrogen
T6 sequence (P16234 24-1089): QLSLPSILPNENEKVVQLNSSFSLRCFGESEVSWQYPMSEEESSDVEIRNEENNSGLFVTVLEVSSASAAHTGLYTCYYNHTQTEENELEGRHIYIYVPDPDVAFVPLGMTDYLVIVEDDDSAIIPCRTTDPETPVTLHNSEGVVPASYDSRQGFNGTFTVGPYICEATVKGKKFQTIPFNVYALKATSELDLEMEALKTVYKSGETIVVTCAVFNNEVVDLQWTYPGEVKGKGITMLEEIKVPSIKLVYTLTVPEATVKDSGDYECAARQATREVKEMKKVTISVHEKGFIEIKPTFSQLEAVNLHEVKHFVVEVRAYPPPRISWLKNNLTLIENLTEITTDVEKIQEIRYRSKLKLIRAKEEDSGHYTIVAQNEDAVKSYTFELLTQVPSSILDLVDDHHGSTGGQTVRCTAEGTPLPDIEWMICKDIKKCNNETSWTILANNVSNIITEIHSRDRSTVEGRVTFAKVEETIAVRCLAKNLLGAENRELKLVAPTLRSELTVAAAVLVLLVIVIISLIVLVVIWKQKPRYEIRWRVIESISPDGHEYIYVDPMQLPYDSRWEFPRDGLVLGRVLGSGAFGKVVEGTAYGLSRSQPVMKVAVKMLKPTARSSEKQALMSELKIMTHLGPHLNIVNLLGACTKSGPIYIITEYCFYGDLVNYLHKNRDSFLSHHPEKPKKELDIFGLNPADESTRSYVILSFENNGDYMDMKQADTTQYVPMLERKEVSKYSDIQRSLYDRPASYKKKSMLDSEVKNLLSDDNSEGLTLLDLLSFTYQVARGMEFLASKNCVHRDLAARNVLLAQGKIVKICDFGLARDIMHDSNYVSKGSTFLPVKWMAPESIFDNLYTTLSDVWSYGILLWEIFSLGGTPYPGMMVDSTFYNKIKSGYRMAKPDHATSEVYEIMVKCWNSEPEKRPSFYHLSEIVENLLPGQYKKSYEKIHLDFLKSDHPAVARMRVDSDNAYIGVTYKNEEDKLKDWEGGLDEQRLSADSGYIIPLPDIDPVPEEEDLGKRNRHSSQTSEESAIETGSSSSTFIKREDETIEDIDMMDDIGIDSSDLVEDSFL
Method: as §1, §2, §3, §4

SRC = target: T7, SRC (Homo sapiens, UniProt P12931); assay: In vitro kinase assay (Z'-LYTE), SRC; format: biochemical; conditions: read-out: % of inhibition of the kinase compared to the control
T7 construct: purchased Invitrogen
T7 sequence (P12931 whole entry): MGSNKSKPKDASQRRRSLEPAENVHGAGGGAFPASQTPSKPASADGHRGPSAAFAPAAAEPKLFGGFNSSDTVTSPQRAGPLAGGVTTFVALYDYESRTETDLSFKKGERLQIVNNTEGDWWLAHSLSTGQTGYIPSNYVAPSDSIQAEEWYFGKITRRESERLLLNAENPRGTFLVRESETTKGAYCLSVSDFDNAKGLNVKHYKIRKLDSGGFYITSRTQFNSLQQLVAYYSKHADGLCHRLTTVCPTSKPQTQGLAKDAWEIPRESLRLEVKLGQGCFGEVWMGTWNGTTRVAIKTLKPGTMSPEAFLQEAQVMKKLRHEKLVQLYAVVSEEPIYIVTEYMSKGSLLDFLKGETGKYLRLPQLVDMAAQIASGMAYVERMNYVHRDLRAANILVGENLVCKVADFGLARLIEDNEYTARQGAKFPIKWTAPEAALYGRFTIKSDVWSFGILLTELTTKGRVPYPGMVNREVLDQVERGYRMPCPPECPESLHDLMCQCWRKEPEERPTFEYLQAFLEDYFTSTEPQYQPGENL
Method: as §1, §2, §3, §4

A549 cell line = assay: In vitro cell proliferation assay (MTT), A549; format: cell-based; conditions: Homo sapiens, read-out: EC50, anti-proliferative activity
Method: (§5) 2) In Vitro Cell Proliferation Assays (Table 22 to Table 35)
(§6) Cancer cell lines (5×10^3 cells per well) or HUVEC (1×10^4 cells per well) or HRMEC (1×10^4 cells per well) were distributed in 96-well plates and incubating in duplicate with escalating concentrations (10 nM to 3 μM) of compounds for 72 hr. Cell proliferation was measured using MTT (3[4,5-dimethylthiazol-2-yl]-2,5-diphenyltetrazolium bromide).

HepG2 cell line = assay: In vitro cell proliferation assay (MTT), HepG2; format: cell-based; conditions: Homo sapiens, read-out: EC50, anti-proliferative activity
Method: as §5, §6

HUVEC = assay: In vitro cell proliferation assay (MTT), HUVEC; format: cell-based; conditions: Homo sapiens, read-out: EC50, anti-proliferative activity
Method: as §5, §6

MDA-MB-231 cell line = assay: In vitro cell proliferation assay (MTT), MDA-MB-231; format: cell-based; conditions: Homo sapiens, read-out: EC50, anti-proliferative activity
Method: as §5, §6

HeLa cell line = assay: In vitro cell proliferation assay (MTT), HeLa; format: cell-based; conditions: Homo sapiens, read-out: EC50, anti-proliferative activity
Method: as §5, §6

HuH7 cell line = assay: In vitro cell proliferation assay (MTT), HuH7; format: cell-based; conditions: Homo sapiens, Huh-7; HuH7, 72 hr, MTT; read-out: EC50, anti-proliferative activity
Method: as §5, §6

T1 sequence (P15056 whole entry): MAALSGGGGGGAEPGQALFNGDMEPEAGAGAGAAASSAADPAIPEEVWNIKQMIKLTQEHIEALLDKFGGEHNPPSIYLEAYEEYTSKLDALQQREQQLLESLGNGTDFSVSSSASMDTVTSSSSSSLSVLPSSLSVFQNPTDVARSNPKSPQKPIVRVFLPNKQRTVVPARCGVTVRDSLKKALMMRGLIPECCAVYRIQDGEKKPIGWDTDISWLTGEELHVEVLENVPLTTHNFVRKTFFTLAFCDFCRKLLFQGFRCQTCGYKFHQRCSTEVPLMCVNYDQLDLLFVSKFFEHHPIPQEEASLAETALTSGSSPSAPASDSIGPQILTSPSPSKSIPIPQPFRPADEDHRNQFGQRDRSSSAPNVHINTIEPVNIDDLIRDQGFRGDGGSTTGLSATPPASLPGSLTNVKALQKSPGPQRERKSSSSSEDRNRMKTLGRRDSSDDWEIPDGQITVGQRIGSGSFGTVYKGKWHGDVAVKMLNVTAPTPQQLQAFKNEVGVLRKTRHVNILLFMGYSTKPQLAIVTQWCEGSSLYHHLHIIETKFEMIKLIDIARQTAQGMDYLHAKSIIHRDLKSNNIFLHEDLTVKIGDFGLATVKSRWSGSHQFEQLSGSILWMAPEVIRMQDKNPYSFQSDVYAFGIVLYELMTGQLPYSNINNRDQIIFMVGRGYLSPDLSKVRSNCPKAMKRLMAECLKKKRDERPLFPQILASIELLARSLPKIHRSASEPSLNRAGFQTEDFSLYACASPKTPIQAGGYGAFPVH

Compound	inhibition at 0.1 µM (BRAF) [%]	inhibition at 0.1 µM (EGFR (ErbB1)) [%]	inhibition at 0.1 µM (EGFR (ErbB1) T790M L858R) [%]	inhibition at 0.1 µM (FGFR2) [%]	inhibition at 0.1 µM (KDR (VEGFR2)) [%]	inhibition at 0.1 µM (PDGFRA (PDGFR alpha)) [%]	inhibition at 0.1 µM (SRC) [%]	pEC50 (A549 cell line; A549, 72 hr, MTT)	pEC50 (HepG2 cell line; HepG2, 72 hr, MTT)	pEC50 (HUVEC; 72 hr, MTT)	pEC50 (MDA-MB-231 cell line; MDA-MB-231, 72 hr, MTT)	pEC50 (HeLa cell line; 72 hr, MTT)	pEC50 (A549 cell line; A549, 72 h)	pEC50 (HepG2 cell line; HepG2, 72 h)	pEC50 (HUVEC; 72 h)	pEC50 (MDA-MB-231 cell line; MDA-MB-231, 72 h)	pEC50 (HeLa cell line; 72 h)	pEC50 (HuH7 cell line)
CC(=O)c1cc2cc(NCc3cc(NC(=O)c4cc(-n5cnc(C)c5)cc(C(F)(F)F)c4)ccc3C)cnc2[nH]1 [OR0719, N-{3-[(2-Acetyl-1H-pyrrolo[2,3-b]pyridin-5-ylamino)-methyl]-4-methyl-phenyl}-3-(4-methyl-imidazol-1-yl)-5-trifluoromethyl-benzamide]	≥ 50	< 50	< 50	< 50	< 50	< 50	≥ 50	–	–	–	–	–	–	–	–	–	–	–
COc1ccccc1C(=O)Nc1ccc(F)c(CNc2cnc3[nH]c(C(C)=O)cc3c2)c1 [OR1063, N-{3-[(2-Acetyl-1H-pyrrolo[2,3-b]pyridin-5-ylamino)-methyl]-4-fluoro-phenyl}-2-methoxy-benzamide]	–	–	–	–	–	–	–	≤ 6.00	≤ 6.00	≤ 6.00	≤ 6.00	≤ 6.00	–	–	–	–	–	–
CC(=O)c1cc2cc(NCc3cccc(NC(=O)c4ccc(CN5CCN(C)CC5)c(C(F)(F)F)c4)c3)cnc2[nH]1 [OR0926, N-{3-[(2-Acetyl-1H-pyrrolo[2,3-b]pyridin-5-ylamino)-methyl]-phenyl}-4-(4-methyl-piperazin-1-ylmethyl)-3-trifluoromethyl-benzamide]	< 50	≥ 50	–	≥ 50	≥ 50	–	–	–	–	–	–	–	6.00 to 7.00	≥ 7.00	6.00 to 7.00	≥ 7.00	6.00 to 7.00	–
CC(=O)c1cc2cc(NC(=O)c3cccc(CNC(=S)c4cccc(C(F)(F)F)c4)c3)cnc2[nH]1 [OR1012, N-[3-(2-Acetyl-1H-pyrrolo[2,3-b]pyridin-5-ylcarbamoyl)-benzyl]-3-trifluoromethyl-thiobenzamide]	< 50	< 50	–	< 50	< 50	< 50	< 50	≤ 6.00	≤ 6.00	≤ 6.00	≤ 6.00	≤ 6.00	–	–	–	–	–	–
CCCCCCNC(=O)c1cc2cc(NCc3cc(NC(=O)c4ccc(CN5CCN(C)CC5)c(C(F)(F)F)c4)ccc3C)cnc2[nH]1 [OR1069, 5-{2-Methyl-5-[4-(4-methyl-piperazin-1-ylmethyl)-3-trifluoromethyl-benzoylamino]-benzylamino}-1H-pyrrolo[2,3-b]pyridine-2-carboxylic acid hexylamide]	–	–	–	–	–	–	–	–	–	–	–	≤ 6.00	–	6.00 to 7.00	6.00 to 7.00	6.00 to 7.00	–	–
CC(=O)c1cc2cc(NCc3cc(NC(=O)c4ccc(CN5CCN(C)CC5)c(C(F)(F)F)c4)ccc3F)cnc2[nH]1 [OR0972, N-{3-[(2-Acetyl-1H-pyrrolo[2,3-b]pyridin-5-ylamino)-methyl]-4-fluoro-phenyl}-4-(4-methyl-piperazin-1-ylmethyl)-3-trifluoromethyl-benzamide]	< 50	≥ 50	–	≥ 50	≥ 50	–	–	–	–	–	–	–	6.00 to 7.00	≥ 7.00	6.00 to 7.00	≥ 7.00	6.00 to 7.00	–
CC(=O)c1cc2cc(NCc3cc(NC(=O)c4ccc(CN5CCN(C)CC5)cc4)ccc3C)cnc2[nH]1 [OR0734, N-{3-[(2-Acetyl-1H-pyrrolo[2,3-b]pyridin-5-ylamino)-methyl]-4-methyl-phenyl}-4-(4-methyl-piperazin-1-ylmethyl)-benzamide]	< 50	≥ 50	–	< 50	≥ 50	≥ 50	≥ 50	–	–	–	–	–	–	–	–	–	–	≤ 6.00

— patent US9403823B2, “Protein kinase inhibitors” (ORIBASE PHARMA, priority 2012, dated 2016)
